For five molecules, TD50 and carcinogen call results are on record in PubChem BioAssay AID1745844 (Carcinogenic Potency Database (CPDB), 2022).

The source made the active and inactive calls. The rule behind the calls is not given here.

In the series the test system is rodent lifetime carcinogenesis bioassay, tumor incidence TD50. The series is described as follows: chronic cancer bioassays in animals – CPDB, compiled studies (AID 1745844).

By TD50 is commonly meant the dose at which the toxic effect under study appears in half of the subjects. With `ClC(Cl)C(Cl)Cl`, the TD50 (mouse, strain B6C3F1, females, by gavage, site: any site (literature study), lesion: several types, types named in the paper, dosed 78 weeks, study length 92 weeks) came out at 37.2 mg/kg/day; the TD50 (mouse, strain B6C3F1, females, by gavage, site: liver, lesion: hepatocellular adenoma + hepatocellular carcinoma + neoplastic nodule, dosed 78 weeks, study length 92 weeks) was 35.4 mg/kg/day; the TD50 (mouse, strain B6C3F1, females, by gavage, site: liver, lesion: hepatocellular carcinoma, dosed 78 weeks, study length 91 weeks) was 35.8 mg/kg/day; the TD50 (mouse, strain B6C3F1, females, by gavage, site: liver, lesion: hepatocellular carcinoma, dosed 78 weeks, study length 92 weeks) is 35.4 mg/kg/day; the TD50 (mouse, strain B6C3F1, females, by gavage, site: lung, lesion: alveolar/bronchiolar adenoma + alveolar/bronchiolar carcinoma, dosed 78 weeks, study length 92 weeks) was 1910 mg/kg/day; the TD50 (mouse, strain B6C3F1, males, by gavage, site: any site (literature study), lesion: several types, types named in the paper, dosed 78 weeks, study length 92 weeks) worked out at 38.7 mg/kg/day. Also, the TD50 is, setting by setting: (mouse, strain B6C3F1, males, by gavage, site: liver, lesion: hepatocellular adenoma + hepatocellular carcinoma + neoplastic nodule, dosed 78 weeks, study length 92 weeks) 41.6 mg/kg/day; (mouse, strain B6C3F1, males, by gavage, site: liver, lesion: hepatocellular carcinoma, dosed 78 weeks, study length 91 weeks) 45.4 mg/kg/day; (mouse, strain B6C3F1, males, by gavage, site: liver, lesion: hepatocellular carcinoma, dosed 78 weeks, study length 92 weeks) 41.6 mg/kg/day; (mouse, strain B6C3F1, males, by gavage, site: lung, lesion: alveolar/bronchiolar adenoma + alveolar/bronchiolar carcinoma, dosed 78 weeks, study length 92 weeks) 895 mg/kg/day; (rat, strain Osborne-Mendel, females, by gavage, site: any site (literature study), lesion: several types, types named in the paper, dosed 77 weeks, study length 110 weeks) 84.2 mg/kg/day (inactive); (rat, strain Osborne-Mendel, males, by gavage, site: liver, lesion: hepatocellular adenoma + hepatocellular carcinoma + neoplastic nodule, dosed 77 weeks, study length 110 weeks) 624 mg/kg/day. Further, the carcinogen call (rat, strain Osborne-Mendel, males, by gavage, site: any site (literature study), lesion: several types, types named in the paper, dosed 77 weeks, study length 110 weeks) is “negative (inactive)”.
For `CCN(N)C=O`, the TD50 was 2.49 mg/kg/day (mouse, strain Swiss albino, females, in drinking water, site: blood vessels, lesion: several types, types named in the paper, dosed 61 weeks, study length 61 weeks); 2.52 mg/kg/day (mouse, strain Swiss albino, females, in drinking water, site: lung, lesion: several types, types named in the paper, dosed 61 weeks, study length 61 weeks); 3.55 mg/kg/day (mouse, strain Swiss albino, males, in drinking water, site: blood vessels, lesion: several types, types named in the paper, dosed 60 weeks, study length 60 weeks); 47.4 mg/kg/day (mouse, strain Swiss albino, males, in drinking water, site: gall bladder, lesion: several types, types named in the paper, dosed 60 weeks, study length 60 weeks); 17.7 mg/kg/day (mouse, strain Swiss albino, males, in drinking water, site: liver, lesion: several types, types named in the paper, dosed 60 weeks, study length 60 weeks); 3.19 mg/kg/day (mouse, strain Swiss albino, males, in drinking water, site: lung, lesion: several types, types named in the paper, dosed 60 weeks, study length 60 weeks). In addition, the TD50 (mouse, strain Swiss albino, males, in drinking water, site: preputial gland, lesion: several types, types named in the paper, dosed 60 weeks, study length 60 weeks) is 50.8 mg/kg/day.
For `CC1(C)COC1=O`, the TD50 was 179 mg/kg/day (inactive) (mouse, strain B6C3F1, females, by gavage, site: any site (literature study), lesion: several types, types named in the paper, dosed 102 weeks, study length 103 weeks); 482 mg/kg/day (mouse, strain B6C3F1, females, by gavage, site: lung, lesion: alveolar/bronchiolar adenoma + alveolar/bronchiolar carcinoma, dosed 102 weeks, study length 103 weeks); 435 mg/kg/day (mouse, strain B6C3F1, males, by gavage, site: lung, lesion: alveolar/bronchiolar adenoma + alveolar/bronchiolar carcinoma, dosed 102 weeks, study length 103 weeks); 200 mg/kg/day (rat, strain Fischer 344, females, by gavage, site: any site (literature study), lesion: several types, types named in the paper, dosed 103 weeks, study length 105 weeks); 333 mg/kg/day (rat, strain Fischer 344, females, by gavage, site: stomach, lesion: squamous-cell carcinoma + squamous-cell papilloma, dosed 103 weeks, study length 105 weeks); 181 mg/kg/day (rat, strain Fischer 344, males, by gavage, site: any site (literature study), lesion: several types, types named in the paper, dosed 103 weeks, study length 105 weeks). Besides, the TD50 is, setting by setting: (rat, strain Fischer 344, males, by gavage, site: liver, lesion: hepatocellular adenoma + hepatocellular carcinoma + neoplastic nodule, dosed 103 weeks, study length 105 weeks) 850 mg/kg/day; (rat, strain Fischer 344, males, by gavage, site: stomach, lesion: squamous-cell carcinoma + squamous-cell papilloma, dosed 103 weeks, study length 105 weeks) 154 mg/kg/day; (rat, strain Fischer 344, males, by gavage, site: stomach, lesion: squamous-cell carcinoma, dosed 103 weeks, study length 105 weeks) 532 mg/kg/day. The carcinogen call (mouse, strain B6C3F1, males, by gavage, site: any site (literature study), lesion: several types, types named in the paper, dosed 102 weeks, study length 103 weeks) is “negative (inactive)”.
As to `CCOC(=O)N(C)N=O`, where the note is “hamster, strain Syrian Golden, both sexes, by gavage, site: esophagus, lesion: epidermoid carcinoma, dosed 27 weeks, study length 73 weeks”, the TD50 is 0.127 mg/kg/day. The carcinogen call (hamster, strain Syrian Golden, both sexes, by gavage, site: forestomach, lesion: epidermoid carcinoma, dosed 27 weeks, study length 73 weeks) was “positive”.
Consider `Cc1ccc(C)c(OCCCC(C)(C)C(=O)O)c1`, for which the TD50 was 1690 mg/kg/day (inactive) (mouse, strain Charles River CD1, females, in feed, site: any site (literature study), lesion: several types, types named in the paper, dosed 78 weeks, study length 78 weeks); 6600 mg/kg/day (inactive) (mouse, strain Charles River CD1, females, in feed, site: liver, lesion: hepatocellular adenoma, dosed 78 weeks, study length 78 weeks); 11800 mg/kg/day (inactive) (mouse, strain Charles River CD1, females, in feed, site: lung, lesion: several types, types named in the paper, dosed 78 weeks, study length 78 weeks); 1660 mg/kg/day (inactive) (mouse, strain Charles River CD1, males, in feed, site: liver, lesion: several types, types named in the paper, dosed 78 weeks, study length 78 weeks); 504 mg/kg/day (inactive) (rat, strain Charles River CD (Sprague-Dawley), females, in feed, site: liver, lesion: hepatocellular carcinoma, dosed 104 weeks, study length 104 weeks); 85.9 mg/kg/day (rat, strain Charles River CD (Sprague-Dawley), males, in feed, site: adrenal gland, lesion: pheochromocytoma, dosed 104 weeks, study length 104 weeks). In addition, the TD50 is 196 mg/kg/day (rat, strain Charles River CD (Sprague-Dawley), males, in feed, site: any site (literature study), lesion: benign tumor, dosed 104 weeks, study length 104 weeks); 202 mg/kg/day (rat, strain Charles River CD (Sprague-Dawley), males, in feed, site: any site (literature study), lesion: several types, types named in the paper, dosed 104 weeks, study length 104 weeks); 247 mg/kg/day (rat, strain Charles River CD (Sprague-Dawley), males, in feed, site: liver, lesion: hepatocellular carcinoma, dosed 104 weeks, study length 104 weeks); 161 mg/kg/day (rat, strain Charles River CD (Sprague-Dawley), males, in feed, site: pancreas, lesion: several types, types named in the paper, dosed 104 weeks, study length 104 weeks); 516 mg/kg/day (rat, strain Charles River CD (Sprague-Dawley), males, in feed, site: testis, lesion: interstitial-cell tumor, dosed 104 weeks, study length 104 weeks). The carcinogen call reads like this: (mouse, strain Charles River CD1, males, in feed, site: any site (literature study), lesion: several types, types named in the paper, dosed 78 weeks, study length 78 weeks) “negative (inactive)”; (mouse, strain Charles River CD1, males, in feed, site: lung, lesion: several types, types named in the paper, dosed 78 weeks, study length 78 weeks) “negative (inactive)”; (rat, strain Charles River CD (Sprague-Dawley), females, in feed, site: any site (literature study), lesion: several types, types named in the paper, dosed 104 weeks, study length 104 weeks) “negative (inactive)”.
